Assay results as given in patent US20220062205A1, “TREATMENT OF GASTROINTESTINAL DISORDERS AND SYMPTOMS THEREOF” (Indiana University Research and Technology Corporation, priority 2018, published 2022).

Key:
Assay type in all cases: in vivo, mouse
Winnie mice [1] = experiment: Intestinal permeability: FABP1 ELISA in blood sera; settings: day 14; mean±SEM, n=5
Procedure: The small molecular APE1/Ref-1 antagonist; APX3330, was administered via IP injections in Winnie mice at a dose of 25 mg/kg (30 G needle, max volume 200 μl) dissolved in Cremphore (2%) (Sigma-Aldrich): Ethanol (2%) in sterile water (96%). Mice received alternating IP injections twice a day with 12-hour intervals, over the course of two weeks during predominate intestinal inflammation. Winnie-sham treated mice received vehicle injections excluding APX3330 drugs. All mice were monitored, weighed and faecal pellets were collected over the course of treatment. On day 14, mice were subjected to an overdose of lethobarb (1:16 dilution, 30 G, 100 μl/20 g) IP injections for blood collections prior to harvesting colon tissues. Puncture allowed for a minimal collection of 600 μl of blood via a 26 G needle. Blood was kept on ice for 2 hours, centrifuged at 12×G at 4° C. for 15 minutes were plasma was collected and stored at −20° C. for subsequent ELISA experiments. Quantikine ELISA (mouse/rat FABP1/L-FABP) (Abcam) measured sera levels for fatty acid binding protein (FABP)-1. All samples were repeated in duplicates for statistical value. […] Microplate reader capable of measuring absorbance at 450 nm, with the correction wavelength set at 540 nm was used to detect FABP-1 protein (ng/mL) in blood sera.

Winnie mice [2] = experiment: Gastrointestinal transit of barium sulfate by X-ray imaging; settings: 25 mg/kg IP twice a day
Procedure: The small molecular APE1/Ref-1 antagonist; APX3330, was administered via IP injections in Winnie mice at a dose of 25 mg/kg (30 G needle, max volume 200 μl) dissolved in Cremphore (2%) (Sigma-Aldrich): Ethanol (2%) in sterile water (96%). Mice received alternating IP injections twice a day with 12-hour intervals, over the course of two weeks during predominate intestinal inflammation. Winnie-sham treated mice received vehicle injections excluding APX3330 drugs. All mice were monitored, weighed and faecal pellets were collected over the course of treatment. GI transit was acquired via a non-invasive radiological method. Briefly, control C57BL/6, Winnie-sham treated and Winnie-APX3330 treated mice received an administration of barium sulfate (2.5 mg/mL; max volume of 200 μl; X-OPAQUE-HD) via oral gavage. Sequential x-rays were attained by HiRay Plus Porta610HF x-ray apparatus (JOC Corp, Kanagawa, Japan; 50 kV, 0.3 mAs, exposure time 60 ms) immediately post Barium sulfate administration (0 min), every 5 minutes for the first hour, 10 minutes for the second hour and then every 20 minutes through to 250 minutes. Fujifilm FCR Capsule XL11 and analysed on eFilm 4.2.0 software developed images. Parameters of GI transit were measured by time (mins) to determine contrast passing through whole GI tract (whole transit time), stomach to caecum (oro-cecal transit time; OCTT), leaving caecum to anus (colonic transit time; CTT) and caecum retention time.

Winnie mice [3] = experiment: Superoxide production in the myenteric plexus (MitoSOX Red); settings: distal colon myenteric plexus; mean±SEM, n=4
Procedure: The small molecular APE1/Ref-1 antagonist; APX3330, was administered via IP injections in Winnie mice at a dose of 25 mg/kg (30 G needle, max volume 200 μl) dissolved in Cremphore (2%) (Sigma-Aldrich): Ethanol (2%) in sterile water (96%). Mice received alternating IP injections twice a day with 12-hour intervals, over the course of two weeks during predominate intestinal inflammation. Winnie-sham treated mice received vehicle injections excluding APX3330 drugs. All mice were monitored, weighed and faecal pellets were collected over the course of treatment. MITOSOX™ Red M36008 (Invitrogen, Australia), acquired mitochondrial-derived production of superoxide in the myenteric ganglia. Briefly, distal colon preparations from control C57BL/6, Winnie-sham treated and Winnie-APX3330 treated mice freshly excised to expose the myenteric plexus. Samples were incubated at 37° C. for 40 minutes with 5 μM MITOSOX™ Red M36008. Tissues were washed with oxygenated physiological saline and fixed with Zamboni's fixative for 1-hour followed by (3×10 minute) 1×PBS washes. Prepared tissues were mounted on glass slides with DAKO fluorescent a mounting medium for imaging Images were captured as previously described above. Images were converted into binary and changes in fluorescence were measured in arbitrary units (arb. Units) relative to ganglion area using ImageJ software (National Institute of Health).

Winnie mice [4] = experiment: Intestinal inflammation: faecal lipocalin (Lcn)-2 ELISA; settings: day 14; mean±SEM, n=5
Procedure: The small molecular APE1/Ref-1 antagonist; APX3330, was administered via IP injections in Winnie mice at a dose of 25 mg/kg (30 G needle, max volume 200 μl) dissolved in Cremphore (2%) (Sigma-Aldrich): Ethanol (2%) in sterile water (96%). Mice received alternating IP injections twice a day with 12-hour intervals, over the course of two weeks during predominate intestinal inflammation. Winnie-sham treated mice received vehicle injections excluding APX3330 drugs. All mice were monitored, weighed and faecal pellets were collected over the course of treatment. Faecal lipocalin (Lcn)-2 ELISA kit (Abcam) were used to detect efficacy of APX3330 on levels of colonic inflammation. Faecal samples collected on day 14 of treatments from control C57BL/6, Winnie-Sham treated and Winnie-APX3330 treated mice were reconstituted in PBS-0.1 TWEEN 20 (100 mg/mL) to form a homogenous faecal suspension. Homogenous suspension was centrifuged for 10 minutes at 12000 RPM at 4° C. Lcn-2 were determined in the clear supernatants. All samples were repeated in duplicates for statistical value. […] Microplate reader capable of measuring absorbance at 450 nm, with the correction wavelength set at 540 nm was used to detect Lcn-2 protein (pg/mL) in faecal pellet supernatant.

## CCCCCCCCCC(=CC1=C(C)C(=O)C(OC)=C(OC)C1=O)C(=O)O [APX3330]
Winnie mice [1]
  FABP1 in blood sera: 0.6 ± 0.2 ng/mL
Winnie mice [2]; Winnie mice, mean±SEM
  retention time in the cecum: 86.4 ± 17.8 min
  total transit time: 173.3 ± 24.6 min
Winnie mice [2]; between experimental groups, Winnie mice
  oro-caecal transit time (OCTT): No changes
Winnie mice [2]; compared to Winnie-sham treated mice
  colonic transit time (CTT): improved
Winnie mice [3]
  MitoSOX fluorescence (superoxide production) relative to ganglion area: 19.2±7.5%
Winnie mice [4]
  Lcn-2 faecal level: 36 ± 2.0 pg/mL
